In test [1] the test system is IL-17+ CD4 T-cells in lamina propria. The test can be described thus: DSS-induced damage of the intestinal epithelium, IL-17+ CD4 T-cells in lamina propria lymphocytes. The format is in vivo, C57BL/6 mice. To be noted: DSS in water for seven days, sacrificed on day 9, small intestines and colons. As to the method: The small intestines and colons of C57BL/6J or C3H/HeOuJ mice were harvested at the indicated times. […] To prepare IEL/LPL, small intestines and colons were flushed with HBSS medium without calcium or magnesium (Gibco). Intestines were cut longitudinally and washed twice briefly in HBSS, 2% FBS in 6-well plates and then placed in 15 mL ice-cold HBSS, 2% FBS in 50-mL conical tubes and vortexed at maximum setting for 15-20 seconds. Tissue was removed using long forceps into a new tube with 15 mL ice-cold HBSS, 2% FBS and vortexed again twice, for a total of three washes. The tissues were then placed in 50-mL conical tubes containing 25 mL, HBSS, 5% FBS, and 1 mM DTT (Sigma-Aldrich). Tubes were incubated on a rocker at 37° C. for 20 minutes followed by vortexing extensively at maximum setting. For IEL, fractions were collected after two rounds of 20 minutes in HBSS/FBS/DTT. Tissues were then placed in fresh tubes containing 25 mL of PBS with 1.3 mM EDTA, incubated on a rocker for 60 minutes at 37° C. and vortexed. […]
WT and mutant C. rodentium were prepared by incubation with shaking at 37° C. for 8 hours in LB broth medium. After 8 hours, the bacterial density was assessed at an optical density of 600 nm and confirmed by plating of serial dilutions. […]

The test system of test [2] is Bone marrow DC. The test can be described thus: TGF-β bioassay of DC conditioned medium (MFB-F11 SBE-SEAP reporter cells). The format is cell-based, mice. The protocol:
Analysis of bioactive TGF-β was performed as previously described in Tesseur, I. et al. (2006) BMC Cell Biol 7: 15. MFB-F11 mouse fibroblast cells stably transfected with a reporter plasmid consisting of TGF-β-responsive Smad-binding elements coupled to a secreted alkaline phosphatase reporter gene (SBE-SEAP) were seeded at 3×10^4 cells/well in 96-well flat bottom tissue culture plates and cultured overnight in DMEM supplemented with 10% FBS and penicillin/streptomycin (DMEM/P/S). Cells were washed twice with PBS and incubated in 50 μL serum-free DMEM for 2 hours. Conditioned medium from DC was diluted 1:5 in serum-free DMEM/P/S and 5 μL was added to the MFB-F11 cells. For detection of total TGF-β, diluted conditioned medium was activated by adding 1.5 μL 6M HCl to 150 μL of sample and incubating 10 minutes at room temperature. Neutralization was performed by adding 1.5 μL 6M NaOH. […] SEAP activity was measured using Great EscAPe™ SEAP Reporter System 3 (Clontech, Mountain View, Calif.) according to the manufacturer's protocol with 96-well white/flat bottom plates. Luciferase activity was measured with a FLUOStar Optima reader (BMG Labtech, Durham, N.C.). For each sample, the concentration of biologically active TGF-β was calculated as follows: (luciferase activity of bio-active TGF-β/luciferase activity for total TGF-β)×100. […]

Test [3] deals with Naïve CD4 T-cells. The test can be described thus: In vitro T-cell differentiation in DC conditioned medium, IL-17/IL-10 in supernatants by ELISA. Conditions: three days in CM, with IFN-γ neutralizing antibody. It counts as cell-based, C57BL/6J mice. As to the method: Bone marrow (BM)-derived GM-CSF DC cultures were grown in RPMI supplemented with GM-CSF and 5% foetal bovine serum (FBS), plus 100 μg/mL penicillin, 100 μg/mL streptomycin, 2 mM L-glutamine, 10 mM HEPES, 1 nM sodium pyruvate, 1×MEM nonessential amino acids, and 2.5 μM β-mercaptoethanol (all from Sigma-Aldrich, St. Louis, Mo.), as previously dcseribed^1. Semi-adherent cells were harvested on ice on day 5 and re-plated immediately in fresh GM-CSF medium at 1×10^6 cells/well in 24-well tissue culture-treated plates. Soluble or phagocytic stimuli were added right away to the plates in the same medium and the cells were centrifuged for 2 min at 2000 rpm. Supernatants (conditioned medium, CM) were collected after 18 hours. LPS (from E. coli, serotype 055:B5, L-2880) was purchased from Sigma-Aldrich. BMDC were treated with various doses of soluble LPS or 2:1 A20 LPS blasts:DC to titrate the LPS such that levels of IL-6 produced by DC in response to these stimuli was similar. Soluble LPS was used at a final concentration of 1 ng/mL. The A20 B-cell line was obtained from the ATCC (TIB-208). A20 LPS blasts were prepared by culturing A20 cells at 1×10^6 cells/mL, 3 mL/well in 6-well tissue culture plates for four days in RPMI medium supplemented with 10% FBS, with 100 μg/mL penicillin, 100 μg/mL streptomycin, 2 mM L-glutamine, 10 mM HEPES, 1 nM sodium pyruvate, plus 25 μg/mL LPS, as previously described in Blander, J. M. and Medzhitov, R. (2004) Science 304(5673):1014. […] Cells were centrifuged, counted, and apoptosis was induced by UV irradiation at 350 mJ. […]
Naïve CD4 T cells were isolated first by sorting with MACS® CD4^+ beads (Miltenyi Biotech, Auburn, Calif.) according to manufacturer's instructions and then by fluorescence activated cell sorting (FACS) using a MoFlo™, Vantage, or Influx™ cell sorter for CD25^−CD44^lowCD62L^high cells using allophycocyanin (APC)-conjugated anti-CD25 monoclonal antibody (mAb) (clone PC61.5), FITC-conjugated CD62L mAb (clone MEL-14), and PE-Cy5-conjugated CD44 mAb (clone IM7) (all from eBioscience™, San Diego, Calif.). […]
(In an ELISA, binding on a coated surface is turned into a signal by an enzyme label.)

With “dextran sulfate sodium [dextran sulfate sodium (DSS)]”, in test [1], the “IL-17+ CD4 T-cells” value is given as “did not increase IL-17^+ CD4 T-cells over uninfected controls”.
In the case of lipopolysaccharide [free LPS], the “production of biologically active TGF-β by DC” value in test [2] is given as “did not”. Further, the “IL-17 secreting CD4 T-cells” value in test [3] is “some induction of IL-17 secreting (IL-17^+) CD4 T-cells”.

Source of the values: patent US8628762B2, “T-helper cell type 17 lineage-specific adjuvants, compositions and methods” (Icahn School of Medicine at Mount Sinai, priority 2008, dated 2014).
